Test results reported in PMC8058344, “ARIH1 signaling promotes anti-tumor immunity by targeting PD-L1 for proteasomal degradation” (Nature Communications, 2021).

System: PD-L1 in H1975 cells
Assay: PD-L1 levels in H1975 cells by immunoblotting and flow cytometry
Type: cell-based, human
Settings: H1975 cells, 10 μM ES-072 for 12 h
Procedure: Fig. 1 EGFR inhibitors were screened to reduce membrane PD-L1 levels. a High-throughput screening of 2125 FDA-approved drugs or drug candidates. U937 cells were incubated with IFNγ (100 ng/mL) for 48 h, treated with the drugs at 10 μM for 12 h. Ruxolitinib (Rux) was used as a positive control. The hit compounds that induced the decrease of PD-L1 levels are shown in blue. The depth of blue represents decreased level of PD-L1. The heatmap represents the targeted pathways obtained from the high-throughput screening, based upon decreased membrane PD-L1 level detected by flow cytometry. b Immunoblotting of PD-L1 in U937 cells treated with ES-072 (ES) or AZD9291 (AZD) at indicated concentrations for 12 h. ES and AZD are EGFR inhibitors. c, d Median fluorescence intensity (MFI) (c) and relative quantification (d) of PD-L1 in U937 cells treated with 10 μM ES-072 or 10 μM AZD9291 for 12 h. Data represent means ± SEM, n = 18, 6 independent repeats, ****P < 0.0001. e–g Immunoblotting (e, f) and flow cytometry (g) analysis of PD-L1 levels in U937 cells treated with 10 μM ES-072 or 10 μM AZD9291 for the indicated times. h, i Immunoblottings (h) of PD-L1 and β-TrCP, relative quantification (i) of PD-L1 MFI in H1975 cells transfected with non-targeting siRNA (si-CTRL) or β-TrCP siRNAs (si-β-TrCP) and treated with or without 10 μM ES-072/AZD9291 for 12 h. Data represent means ± SEM, n = 9, 3 independent repeats, NS: no significant; ****P < 0.0001. j–l Immunoblotting (j) and flow cytometry analysis (k) with relative quantification (l) of PD-L1 in H1975 cells treated with 10 μM ES-072 or AZD9291, and/or 5 μM LY2090314 (LY) for 12 h. […]
Fig. 5 GSK3α-mediated phosphorylation of PD-L1 promotes PD-L1-ARIH1 interaction and ARIH1-induced degradation. a Co-IP analysis for the interaction of K48-ubiquitin, ARIH1 (HA), and PD-L1 in HEK293T cells transfected with HA-ARIH1 and Flag-PD-L1 (WT, S279A, S283A, or 2SA), treated with MG132 (10 μM) for 6 h; HA-tagged empty vector (HA-EV) was transfected as a negative control. b Co-IP analysis for the interaction of ARIH1 and PD-L1 in HEK293T cells transfected with HA-ARIH1 and Flag-PD-L1 (WT or 2SA), treated with 10 μM ES-072 for 24 h, Flag-tagged empty vector (Flag-EV) was transfected as a negative control. c HEK293T cells were transfected with Flag-PD-L1. Co-IP analysis for the interaction of ubiquitin and PD-L1 in HEK293T cells transfected with ARIH1-siRNAs or HA-GSK3α and treated with MG132 (10 μM) for 6 h; non-targeting siRNA (si-CTRL) was transfected as a negative control. d Immunoblots of PD-L1 and ARIH1 (HA) in H1975 cells transfected with HA-ARIH1, treated with or without 5 μM LY for 6 h. e, f MFI (e) and relative quantification (f) of PD-L1 in HA-ARIH1-overexpressed H1975 cells, treated with or without 5 μM LY for 6 h. […]

C=CC(=O)Nc1cccc(Nc2nc(Nc3ccc(N4CCN(C)CC4)nc3OC)ncc2C(F)(F)F)c1 [ES-072]
PD-L1 level in whole cell lysate (WCL) and outer membrane protein (OMP): decreased
